Measured values taken from US8940310B2, “Methods of treatment using TLR7 and/or TLR9 inhibitors” (Dynavax Technologies Corporation, priority 2010, dated 2015).
Marks after values point to notes of the source that are not given here. [I] = hypoxanthine (inosine)

Key:
[1] = High dosages of IRPs in rats (weight, deaths, histology); type: in vivo, Sprague Dawley rats; conditions: for Heart: Cell Vacuolation, number of animals / Heart: Hemorrhage, number of animals / Heart: Mononuclear Cell Infiltration, number of animals / Heart: Necrosis, number of animals / Heart: No significant changes, number of animals / Liver: Liver changes, number of animals / Liver: Mixed cell infiltration, number of animals / Liver: Necrosis, number of animals / Liver: No significant changes, number of animals / Liver: Vacuolation, number of animals / Right Kidney: Hydronephrosis, number of animals / Right Kidney: Mineralization, number of animals / Right Kidney: Necrosis, number of animals / Right Kidney: No significant changes, number of animals / Right Kidney: Tubular basophilia, number of animals / Right Kidney: Tubular changes, number of animals: 6 animals
[2] = Monomer and tetramer formation of IRPs, size-exclusion HPLC; type: physicochemical; conditions: 100 mg/mL in PBS and 0.5M KCl, room temperature, five weeks
Procedure: Solutions were prepared of the by mixing 100 mg/mL of the IRP sequences in PBS and 0.5M KCl and storing at room temperature for three to five weeks. The solutions were subsequently analyzed by size-exclusion HPLC.

[3] = High dosages of IRPs in mice (weight, histology); type: in vivo, BALB/c mice; conditions: for Liver: Liver changes, number of animals / Liver: Mixed cell infiltration, number of animals / Liver: No significan changes, number of animals / Right Kidney: No significant changes, number of animals / Right Kidney: Tubular basophilia, number of animals / Right Kidney: Tubular changes, number of animals: 6 animals; for Heart: No significant changes, number of animals: tissue missing in two animals
Procedure, shortened: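 BALB/c mice (n=5 per group) received IRPs or saline subcutaneously at 4, 20, 50 or 100 mg/kg on days 1, 4, 7 and 10. Body weight tracked over the study; at termination organ weights, tissue oligonucleotide levels and liver, kidney and heart histology were assessed.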

human B-cells = assay: Human B-cells cultured in the presence of IRPs, IL-6
[4] = rat, 10 mg/kg, 0 = no change to 4 = severe
[5] = rat, 90 mg/kg, 0 = no change to 4 = severe
[6] = 50 mg/kg, 0 = no change to 4 = severe
[7] = 100 mg/kg, 0 = no change to 4 = severe

For “5′-TGC TCC TGG AGI GGT TGT-3′ (DNA TGCTCCTGGAGNGGTTGT; DNA, [I] at 12, backbone and methylation of C not given here) [SEQ ID NO:73]”, the toxicity profile ([1]; rat histology) was “favorable toxicity profiles”, the “Heart: Cell Vacuolation, number of animals” value ([1]; rat, 10 mg/kg) was 0 and the “Heart: Hemorrhage, number of animals” value ([1]; rat, 10 mg/kg) was 0. The “Heart: Mononuclear Cell Infiltration, number of animals” value ([1]; rat, 10 mg/kg) was 0, the “Heart: Necrosis, number of animals” value ([1]; rat, 10 mg/kg) was 0 and the “Heart: No significant changes, number of animals” value (from here on “Heart: No significant changes”) ([1]; rat, 10 mg/kg) was 6. For the same substance, the “Liver: Liver changes, number of animals” value ([1]; rat, 10 mg/kg) was 0, the “Liver: Mixed cell infiltration, number of animals” value ([1]; rat, 10 mg/kg) was 6 and the “Liver: Necrosis, number of animals” value ([1]; rat, 10 mg/kg) was 0. The “Liver: No significant changes, number of animals” value ([1]; rat, 10 mg/kg) was 0, the “Liver: Vacuolation, number of animals” value ([1]; rat, 10 mg/kg) was 0 and the “Right Kidney: Hydronephrosis, number of animals” value ([1]; rat, 10 mg/kg) was 1. The “Right Kidney: Mineralization, number of animals” value ([1]; rat, 10 mg/kg) was 1, the “Right Kidney: Necrosis, number of animals” value ([1]; rat, 10 mg/kg) was 0 and the “Right Kidney: No significant changes, number of animals” value (“Right Kidney: No significant changes” below) ([1]; rat, 10 mg/kg) was 0. For the same substance, the “Right Kidney: Tubular basophilia, number of animals” value (from here on “Right Kidney: Tubular basophilia”) ([1]; rat, 10 mg/kg) was 0, the “Right Kidney: Tubular changes, number of animals” value ([1]; rat, 10 mg/kg) was 6 and the “Liver: Mixed cell infiltration, mean severity score” value [1, 4] was 1.8. The “Right Kidney: Hydronephrosis, mean severity score” value [1, 4] was 2.0, the “Right Kidney: Mineralization, mean severity score” value [1, 4] was 1.0 and the “Right Kidney: Tubular changes, mean severity score” value [1, 4] was 1.3. The “Heart: Cell Vacuolation, number of animals” value ([1]; rat, 90 mg/kg) was 0, the “Heart: Hemorrhage, number of animals” value ([1]; rat, 90 mg/kg) was 0 and the “Heart: Mononuclear Cell Infiltration, number of animals” value ([1]; rat, 90 mg/kg) was 0. For the same substance, the “Heart: Necrosis, number of animals” value ([1]; rat, 90 mg/kg) was 0, the “Heart: No significant changes” value ([1]; rat, 90 mg/kg) was 6 and the “Liver: Liver changes, number of animals” value ([1]; rat, 90 mg/kg) was 6. For the same substance, the “Liver: Mixed cell infiltration, number of animals” value ([1]; rat, 90 mg/kg) was 2, the “Liver: Necrosis, number of animals” value ([1]; rat, 90 mg/kg) was 0 and the “Liver: No significant changes, number of animals” value ([1]; rat, 90 mg/kg) was 0. For the same substance, the “Liver: Vacuolation, number of animals” value ([1]; rat, 90 mg/kg) was 0, the “Right Kidney: Hydronephrosis, number of animals” value ([1]; rat, 90 mg/kg) was 0 and the “Right Kidney: Mineralization, number of animals” value ([1]; rat, 90 mg/kg) was 2. The “Right Kidney: Necrosis, number of animals” value ([1]; rat, 90 mg/kg) was 0, the “Right Kidney: No significant changes” value ([1]; rat, 90 mg/kg) was 0 and the “Right Kidney: Tubular basophilia” value ([1]; rat, 90 mg/kg) was 0. For the same substance, the “Right Kidney: Tubular changes, number of animals” value ([1]; rat, 90 mg/kg) was 6, the “Liver: Liver changes, mean severity score” value [1, 5] was 1.9 and the “Liver: Mixed cell infiltration, mean severity score” value [1, 5] was 2.0. For the same substance, the “Right Kidney: Mineralization, mean severity score” value [1, 5] was 1.5, the “Right Kidney: Tubular changes, mean severity score” value [1, 5] was 2.0 and the “fraction in monomer form” value [2] was 100%. For the same substance, the “Heart: Chronic inflammation, number of animals” value ([3]; 50 mg/kg) was 0, the “Heart: Mineralization, number of animals” value ([3]; 50 mg/kg) was 2 and the “Heart: Mineralization, mean severity score” value [3, 6] was 3.0. For the same substance, the “Liver: Liver changes, mean severity score” value [3, 6] was 1.0, the “Liver: Mixed cell infiltration, mean severity score” value [3, 6] was 1.0 and the “Liver: Liver changes, number of animals” value ([3]; 50 mg/kg) was 1. The “Liver: Mixed cell infiltration, number of animals” value ([3]; 50 mg/kg) was 2, the “Liver: No significan changes, number of animals” value ([3]; 50 mg/kg) was 3 and the “Right Kidney: No significant changes” value ([3]; 50 mg/kg) was 6. For the same substance, the “Right Kidney: Tubular basophilia” value ([3]; 50 mg/kg) was 0, the “Right Kidney: Tubular changes, number of animals” value ([3]; 50 mg/kg) was 0 and the “Heart: No significant changes” value ([3]; 50 mg/kg) was 2**. For the same substance, the “Heart: Chronic inflammation, number of animals” value ([3]; 100 mg/kg) was 1, the “Heart: Mineralization, number of animals” value ([3]; 100 mg/kg) was 1 and the “Heart: Chronic inflammation, mean severity score” value [3, 7] was 2.0. For the same substance, the “Heart: Mineralization, mean severity score” value [3, 7] was 3.0, the “Liver: Liver changes, mean severity score” value [3, 7] was 1.0 and the “Liver: Mixed cell infiltration, mean severity score” value [3, 7] was 1.0. For the same substance, the “Right Kidney: Tubular changes, mean severity score” value [3, 7] was 1.0, the “Liver: Liver changes, number of animals” value ([3]; 100 mg/kg) was 5 and the “Liver: Mixed cell infiltration, number of animals” value ([3]; 100 mg/kg) was 1. For the same substance, the “Liver: No significan changes, number of animals” value ([3]; 100 mg/kg) was 1, the “Right Kidney: No significant changes” value ([3]; 100 mg/kg) was 0 and the “Right Kidney: Tubular basophilia” value ([3]; 100 mg/kg) was 0. The “Right Kidney: Tubular changes, number of animals” value ([3]; 100 mg/kg) was 6, the “Heart: No significant changes” value ([3]; 100 mg/kg) was 2** and the “Normalized IL-6 Response (Percentage of Positive Control)” value (human B-cells; Experiment # 1, Max Conc 4.0 uM) was 11%. For the same substance, the “Normalized IL-6 Response (Percentage of Positive Control)” value (human B-cells; Experiment # 2, Max Conc 4.0 uM) was 13%, the “Normalized IL-6 Response (Percentage of Positive Control)” value (human B-cells; Experiment # 3, Max Conc 4.0 uM) was 6% and the “Normalized IL-6 Response (Percentage of Positive Control)” value (human B-cells; Experiment # 9, Max Conc 2.0 uM) was 11%. The B-cell stimulatory activity (human B-cells; FIG. 1C, percent IL-6 from CpG-ISS) was “low B-cell stimulatory activity”.
